Source: PubChem BioAssay AID328 (DTP/NCI, 2004)
Values joined by “and” are separate entries in the source; they are usually repeats but may differ in a detail not shown here. Equal values may be shown once. Inconclusive results and toxic doses are left out.

System: BDF1 mice, P388 leukemia ip, median survival T/C
Test: NCI In Vivo Anticancer Drug Screen. Data for tumor model P388 Leukemia (intraperitoneal) in B6D2F1 (BDF1) mice
Conditions: endpoint: median survival time, higher = longer survival
In short: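 Each value expresses how treatment altered survival: treated-mouse outcome over vehicle-mouse outcome, both groups bearing the transplanted tumour.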

[1] = dose: 100.0 mg/kg/injection, schedule: Q04DX003 (ip), vehicle: Klucel (hydroxypropylcellulose) (HPC)
[2] = dose: 200.0 mg/kg/injection, schedule: Q04DX003 (ip), vehicle: Klucel (hydroxypropylcellulose) (HPC)
[3] = dose: 50.0 mg/kg/injection, schedule: Q01DX005 (ip), vehicle: saline with Tween-80
[4] = dose: 100.0 mg/kg/injection, schedule: Q01DX005 (ip), vehicle: saline with Tween-80
[5] = dose: 200.0 mg/kg/injection, schedule: Q01DX005 (ip), vehicle: saline with Tween-80
[6] = dose: 100.0 mg/kg/injection, schedule: Q01DX009 (ip), vehicle: Klucel (hydroxypropylcellulose) (HPC)
[7] = dose: 12.5 mg/kg/injection, schedule: Q01DX009 (ip), vehicle: saline
[8] = dose: 50.0 mg/kg/injection, schedule: Q01DX009 (ip), vehicle: saline
[9] = dose: 25.0 mg/kg/injection, schedule: Q01DX009 (ip), vehicle: Klucel (hydroxypropylcellulose) (HPC)
[10] = dose: 37.5 mg/kg/injection, schedule: Q01DX009 (ip), vehicle: Klucel (hydroxypropylcellulose) (HPC)
[11] = dose: 12.5 mg/kg/injection, schedule: Q01DX009 (ip), vehicle: Klucel (hydroxypropylcellulose) (HPC)

CCN(c1ccc2c(c1)C(=O)c1ccccc1-2)S(=O)(=O)c1ccc(C)cc1
T/C [1]: 100 % of control
T/C [2]: 104 % of control
T/C (dose: 400.0 mg/kg/injection, schedule: Q04DX003 (ip), vehicle: Klucel (hydroxypropylcellulose) (HPC)): 95 % of control

CC1(C)OC2(C)CCC1C(O)C2N1CCOCC1 (stereo not drawn)
T/C [3]: 106 % of control
T/C [4]: 106 % of control
T/C [5]: 101 % of control

CCN(CC)C(=S)Oc1cc(C)nc(N2CCCC2)n1
T/C [3]: 95 % of control
T/C [4]: 101 % of control
T/C [5]: 97 % of control

Cc1ccc2oc(=O)c(C3=CC(=O)C(SC(=N)N)C=C3O)c(O)c2c1 (stereo not drawn)
T/C (dose: 50.0 mg/kg/injection, schedule: Q01DX005 (ip), vehicle: Klucel (hydroxypropylcellulose) (HPC)): 95 % of control
T/C (dose: 100.0 mg/kg/injection, schedule: Q01DX005 (ip), vehicle: Klucel (hydroxypropylcellulose) (HPC)): 97 % of control
T/C (dose: 200.0 mg/kg/injection, schedule: Q01DX005 (ip), vehicle: Klucel (hydroxypropylcellulose) (HPC)): 91 % of control

CC1C/C=C2\CSC(NC(=O)/C3=C\N(C/C=C/C=C/C(O)CC(O)CC(=O)N3)C2=O)C(=O)O1 (stereo not drawn)
T/C [6]: 91 % of control
T/C (dose: 200.0 mg/kg/injection, schedule: Q01DX009 (ip), vehicle: Klucel (hydroxypropylcellulose) (HPC)): 100 % of control
T/C (dose: 400.0 mg/kg/injection, schedule: Q01DX009 (ip), vehicle: Klucel (hydroxypropylcellulose) (HPC)): 91 % of control

C#CCSC(=N)N
T/C [7]: 100 % of control
T/C (dose: 33.0 mg/kg/injection, schedule: Q01DX009 (ip), vehicle: saline): 109 % of control and 118 % of control
T/C (dose: 37.5 mg/kg/injection, schedule: Q04DX003 (ip), vehicle: saline): 109 % of control
T/C [8]: 100 % of control and 115 % of control
T/C (dose: 75.0 mg/kg/injection, schedule: Q04DX003 (ip), vehicle: saline): 109 % of control

Cc1cc[n+](CCc2ccccc2)cc1
T/C (dose: 6.25 mg/kg/injection, schedule: Q01DX009 (ip), vehicle: saline): 91 % of control
T/C [7]: 87 % of control
T/C (dose: 18.75 mg/kg/injection, schedule: Q01DX010 (ip), vehicle: acetone): 91 % of control
T/C (dose: 37.5 mg/kg/injection, schedule: Q01DX010 (ip), vehicle: acetone): 87 % of control
T/C [8]: 112 % of control
T/C (dose: 75.0 mg/kg/injection, schedule: Q01DX010 (ip), vehicle: acetone): 91 % of control

Cc1cc(C)[n+](C)c2cc3ccccc3cc12
T/C [3]: 155 % of control

Nc1nc(C=O)c(-c2cccc3ccccc23)c(=O)[nH]1
T/C (dose: 100.0 mg/kg/injection, schedule: Q04DX003 (ip), vehicle: saline with Tween-80): 113 % of control
T/C (dose: 400.0 mg/kg/injection, schedule: Q04DX003 (ip), vehicle: saline with Tween-80): 150 % of control

NC(=O)c1[nH]nc(C2OC(CO)C(O)C2O)c1O (stereo not drawn)
T/C (dose: 0.25 mg/kg/injection, schedule: Q01DX009 (ip), vehicle: saline): 116 % of control
T/C (dose: 0.5 mg/kg/injection, schedule: Q04DX003 (ip), vehicle: saline): 99 % of control and 100 % of control and 104 % of control
T/C (dose: 0.62 mg/kg/injection, schedule: Q01DX009 (ip), vehicle: saline): 100 % of control
T/C (dose: 0.63 mg/kg/injection, schedule: Q01DX009 (ip), vehicle: saline): 113 % of control
T/C (dose: 1.0 mg/kg/injection, schedule: Q01DX009 (ip), vehicle: saline): 120 % of control
T/C (dose: 1.0 mg/kg/injection, schedule: Q04DX003 (ip), vehicle: saline): 103 % of control and 109 % of control
T/C (dose: 1.25 mg/kg/injection, schedule: Q01DX009 (ip), vehicle: saline): 100 % of control
T/C (dose: 2.0 mg/kg/injection, schedule: Q04DX003 (ip), vehicle: saline): 106 % of control and 108 % of control (2×)
T/C (dose: 4.0 mg/kg/injection, schedule: Q04DX003 (ip), vehicle: saline): 99 % of control and 115 % of control
T/C (dose: 5.0 mg/kg/injection, schedule: Q04DX003 (ip), vehicle: saline): 118 % of control
T/C (dose: 8.0 mg/kg/injection, schedule: Q04DX003 (ip), vehicle: saline): 100 % of control and 112 % of control and 123 % of control
T/C (dose: 10.0 mg/kg/injection, schedule: Q04DX003 (ip), vehicle: saline): 107 % of control
T/C (dose: 16.0 mg/kg/injection, schedule: Q04DX003 (ip), vehicle: saline): 123 % of control
T/C (dose: 20.0 mg/kg/injection, schedule: Q04DX003 (ip), vehicle: saline): 118 % of control

CC(=O)N1CCc2nc3ccccc3cc21
T/C (dose: 24.75 mg/kg/injection, schedule: Q01DX009 (ip), vehicle: Klucel (hydroxypropylcellulose) (HPC)): 123 % of control
T/C [9]: 105 % of control
T/C [10]: 104 % of control and 105 % of control
T/C (dose: 56.25 mg/kg/injection, schedule: Q01DX009 (ip), vehicle: Klucel (hydroxypropylcellulose) (HPC)): 104 % of control and 110 % of control

CC(=O)Nc1ccc2c(c1)Cc1cc(NC=O)ccc1-2
T/C (dose: 0.75 mg/kg/injection, schedule: Q01DX009 (ip), vehicle: Klucel (hydroxypropylcellulose) (HPC)): 89 % of control
T/C (dose: 3.0 mg/kg/injection, schedule: Q01DX009 (ip), vehicle: Klucel (hydroxypropylcellulose) (HPC)): 92 % of control
T/C [11]: 96 % of control
T/C [6]: 91 % of control
T/C [1]: 87 % of control

N=C(N)c1ccc(/C=C/c2ccc(C(=N)N)cc2)cc1
T/C [11]: 118 % of control
T/C (dose: 16.5 mg/kg/injection, schedule: Q01DX009 (ip), vehicle: Klucel (hydroxypropylcellulose) (HPC)): 116 % of control and 118 % of control
T/C [10]: 150 % of control

CCCCN(CCCC)CC(O)c1cc(Cl)cc2c1-c1ccc(Cl)cc1C2 (stereo not drawn)
T/C (dose: 50.0 mg/kg/injection, schedule: Q01DX009 (ip), vehicle: saline with Tween-80): 105 % of control
T/C (dose: 100.0 mg/kg/injection, schedule: Q01DX009 (ip), vehicle: saline with Tween-80): 114 % of control
T/C (dose: 200.0 mg/kg/injection, schedule: Q01DX009 (ip), vehicle: saline with Tween-80): 98 % of control

CC1CC[N-]CC1.CC1CC[N-]CC1.[Br][Pt+2]([Br])([Br])[Br]
T/C (dose: 1.56 mg/kg/injection, schedule: Q01DX009 (ip), vehicle: saline with Tween-80): 100 % of control
T/C (dose: 3.12 mg/kg/injection, schedule: Q01DX009 (ip), vehicle: saline with Tween-80): 94 % of control
T/C (dose: 3.12 mg/kg/injection, schedule: Q04DX003 (ip), vehicle: saline with Tween-80): 97 % of control
T/C (dose: 6.25 mg/kg/injection, schedule: Q01DX009 (ip), vehicle: saline with Tween-80): 107 % of control
T/C (dose: 6.25 mg/kg/injection, schedule: Q04DX003 (ip), vehicle: saline with Tween-80): 91 % of control and 108 % of control
T/C (dose: 12.5 mg/kg/injection, schedule: Q04DX003 (ip), vehicle: saline with Tween-80): 100 % of control
T/C (dose: 25.0 mg/kg/injection, schedule: Q04DX003 (ip), vehicle: saline with Tween-80): 117 % of control
T/C (dose: 50.0 mg/kg/injection, schedule: Q04DX003 (ip), vehicle: saline with Tween-80): 91 % of control and 121 % of control

CN(C)CCCNC1=CC(=O)c2ccccc2C1=O
T/C (dose: 1.56 mg/kg/injection, schedule: Q04DX003 (ip), vehicle: water): 108 % of control
T/C (dose: 3.12 mg/kg/injection, schedule: Q04DX003 (ip), vehicle: water): 97 % of control and 98 % of control
T/C (dose: 6.25 mg/kg/injection, schedule: Q01DX009 (ip), vehicle: water): 99 % of control
T/C (dose: 6.25 mg/kg/injection, schedule: Q04DX003 (ip), vehicle: water): 91 % of control and 101 % of control
T/C (dose: 12.5 mg/kg/injection, schedule: Q01DX009 (ip), vehicle: water): 103 % of control
T/C (dose: 12.5 mg/kg/injection, schedule: Q04DX003 (ip), vehicle: water): 97 % of control and 102 % of control
T/C (dose: 25.0 mg/kg/injection, schedule: Q01DX009 (ip), vehicle: water): 110 % of control
T/C (dose: 25.0 mg/kg/injection, schedule: Q04DX003 (ip), vehicle: water): 103 % of control and 119 % of control
T/C (dose: 50.0 mg/kg/injection, schedule: Q01DX009 (ip), vehicle: water): 94 % of control
T/C (dose: 50.0 mg/kg/injection, schedule: Q04DX003 (ip), vehicle: water): 91 % of control
T/C (dose: 100.0 mg/kg/injection, schedule: Q01DX009 (ip), vehicle: water): 103 % of control

COc1cc2oc3c(c(=O)c2c(O)c1/C=C/C(C)C)CCC(C)(C)Oc1cc(O)ccc1-3
T/C (dose: 3.13 mg/kg/injection, schedule: Q01DX009 (ip), vehicle: Klucel (hydroxypropylcellulose) (HPC)): 96 % of control
T/C (dose: 6.25 mg/kg/injection, schedule: Q01DX009 (ip), vehicle: Klucel (hydroxypropylcellulose) (HPC)): 94 % of control
T/C [11]: 94 % of control
T/C [9]: 103 % of control

Cc1c(Cc2ccccc2)[n+](=O)c2ccccc2n1[O-]
T/C [1]: 100 % of control
T/C [2]: 105 % of control
